Measurements published in ChEMBL document CHEMBL5614403, “Efficient synthesis of novel 1,10 phenanthroline-substituted imidazolium salts: Exploring their anticancer applications” (Eur J Med Chem, 2024).

Legend:
[1] = test system: MCF7; test: Cytotoxicity against human MCF7 cells assessed as cell viability incubated for 72 hrs by MTT assay; assay type: functional, cell-based; settings: MCF7, 72 h
[2] = test system: MDA-MB-231; test: Cytotoxicity against human MDA-MB-231 cells assessed as cell viability incubated for 72 hrs by MTT assay; assay type: functional, cell-based; settings: MDA-MB-231, 72 h
[3] = test system: MCF-10A; test: Cytotoxicity against human MCF-10A cells assessed as cell viability incubated for 72 hrs by MTT assay; assay type: functional, cell-based
[4] = test system: MCF7; test: Cytotoxicity against human MCF7 cells assessed as cell viability at 100 uM incubated for 72 hrs by MTT assay relative to control; assay type: functional; settings: read-out: Activity
[5] = test system: MDA-MB-231; test: Cytotoxicity against human MDA-MB-231 cells assessed as cell viability at 100 uM incubated for 72 hrs by MTT assay relative to control; assay type: functional; settings: read-out: Activity
[6] = test system: HepG2; test: Antitumor activity against human HepG2 cells incubated for 72 hrs by MTT assay; assay type: functional, cell-based; settings: HepG2, 72 h
[7] = test system: MCF7; test: Induction of apoptosis in human MCF7 cells incubated for 72 hrs by Annexin V-FITC and PI staining based flow cytometry analysis; assay type: functional
[8] = test system: MDA-MB-231; test: Downregulation of Bcl-2 protein level in human MDA-MB-231 cells by Western blot analysis; assay type: functional, cell-based; settings: time 24-72 hrs, TDE = time-dependent effect
[9] = test system: MCF7; test: Upregulation of Bax protein level in human MCF7 cells by Western blot analysis; assay type: functional, cell-based; settings: time 24-72 hrs, TDE = time-dependent effect
[10] = Downregulation of Bcl-2 mRNA expression level in human MDA-MB-231 cells assessed as fold change by qRT-PCR analysis; assay type: functional
[11] = Upregulation of Bax mRNA expression level in human MDA-MB-231 cells assessed as fold change by qRT-PCR analysis; assay type: functional
[12] = Selectivity index, ratio of IC50 for human MCF-10A cells to ratio of IC50 for human MCF-7 cells; assay type: toxicity; settings: MCF-10A cells versus MCF-7 cells, read-out: Selectivity Index
[13] = test system: MCF7; test: Upregulation of Bax protein level in human MCF7 cells measured after 24 to 72 hrs by Western blot analysis; assay type: functional, cell-based; settings: time 24-72 hrs
[14] = test system: MDA-MB-231; test: Upregulation of Bax protein level in human MDA-MB-231 cells by Western blot analysis; assay type: functional, cell-based; settings: time 24-72 hrs, TDE = time-dependent effect
[15] = Stability of compound in D2O/DMSO-d6 (20:80) measured upto 1 day by 1H NMR spectroscopic analysis; assay type: physicochemical; settings: 24 h
[16] = test system: MDA-MB-231; test: Downregulation of Bcl-2 protein level in human MDA-MB-231 cells measured after 24 to 72 hrs by Western blot analysis; assay type: functional, cell-based; settings: time 24-72 hrs
[17] = Downregulation of Bcl-2 mRNA expression level in human MCF7 cells assessed as fold change by qRT-PCR analysis; assay type: functional
[18] = Stability of compound in 100 % DMSO-d6 by 1H NMR spectroscopic analysis; assay type: physicochemical; settings: 168 h, TDE = time-dependent effect, time < 7 day
[19] = Stability of compound in D2O/DMSO-d6 (20:80) measured after 2 days by 1H NMR spectroscopic analysis; assay type: physicochemical; settings: 48 h; time 2 day
[20] = test system: DNA; test: Binding affinity to DNA (unknown origin) assessed as intrinsic binding constant at 0 to 15 uM by ultraviolet-visible spectroscopic analysis; assay type: nucleic-acid assay; settings: dose 0-15 µM
[21] = Upregulation of Bax mRNA expression level in human MCF7 cells assessed as fold change by qRT-PCR analysis; assay type: functional
[22] = test system: MCF7; test: Downregulation of Bcl-2 protein level in human MCF7 cells by Western blot analysis; assay type: functional, cell-based; settings: time 24-72 hrs, TDE = time-dependent effect
[23] = test system: MCF7; test: Downregulation of Bcl-2 protein level in human MCF7 cells measured after 24 to 72 hrs by Western blot analysis; assay type: functional, cell-based; settings: time 24-72 hrs
[24] = test system: MDA-MB-231; test: Upregulation of Bax protein level in human MDA-MB-231 cells measured after 24 to 72 hrs by Western blot analysis; assay type: functional, cell-based; settings: time 24-72 hrs
[25] = test system: MDA-MB-231; test: Induction of apoptosis in human MDA-MB-231 cells incubated for 72 hrs by Annexin V-FITC and PI staining based flow cytometry analysis; assay type: functional
[26] = Selectivity index, ratio of IC50 for human MCF-10A cells to ratio of IC50 for human MDA-MB-231 cells; assay type: toxicity; settings: MCF-10A cells versus MDA-MB-231 cells, read-out: Selectivity Index

SMILES	IC50 [1]	IC50 [2]	IC50 [3]	viability at 100 µM [4]	viability at 100 µM [5]	further results
Cc1c(C)c(C)c(C[n+]2ccn(-c3cc4cccnc4c4ncccc34)c2)c(C)c1C	49.8 µM	37.2 µM	32.4 µM			
COc1cccc2c1C(=O)c1c(O)c3c(c(O)c1C2=O)C[C@@](O)(C(=O)CO)C[C@@H]3O[C@H]1C[C@H](N)[C@H](O)[C@H](C)O1 [DOXORUBICIN]		4.8 µM				
CCCC[n+]1ccn(-c2cc3cccnc3c3ncccc23)c1	43.4 µM	52.6 µM	48.4 µM	4.8%	25.2%	
c1ccc(C[n+]2ccn(-c3cc4cccnc4c4ncccc34)c2)cc1	52 µM	29.4 µM	46.7 µM			
c1ccc(-c2nc3c4cccnc4c4ncccc4c3[nH]2)cc1						IC50 [6]: 0.68 µM
c1cnc2c(c1)cc(-n1ccnc1)c1cccnc12	128 µM	60.7 µM	237 µM	61.3%	39.7%	
CCCCCCCCCCCC[n+]1ccn(-c2cc3cccnc3c3ncccc23)c1.[Br-]	15.4 µM	12.8 µM	64.2 µM			Activity [7]: 89%; Activity [8]: Tde; Activity [9]: Tde; fold change (FC) [10]: 4.2; fold change (FC) [11]: 3.6; selectivity ratio [12]: 4.1; Activity [13]: Dose-Dependent Effect; Activity [14]: Tde; Stability [15]: Stable; Activity [16]: Dose-Dependent Effect; fold change (FC) [17]: 3.9; Stability [18]: Tde; Stability [19]: Unstable; Kb [20]: 12600 M⁻¹; fold change (FC) [21]: 3.4; Activity [22]: Tde; Activity [23]: Dose-Dependent Effect; Activity [24]: Dose-Dependent Effect; Activity [25]: 95%; selectivity ratio [26]: 5
CCCCCCCC[n+]1ccn(-c2cc3cccnc3c3ncccc23)c1	49.7 µM	17.8 µM	35.1 µM	21.1%	10.1%	
Cc1cc(C)c(C[n+]2ccn(-c3cc4cccnc4c4ncccc34)c2)c(C)c1	64.2 µM	32.7 µM	35.9 µM			
